From patent publication EP1019392B1, “TRICYCLIC AMIDES USEFUL FOR INHIBITION OF G-PROTEIN FUNCTION AND FOR TREATMENT OF PROLIFERATIVE DISEASES” (SCHERING CORPORATION, priority 1995, dated 1997)

The compounds below were run against T1, geranylgeranyl protein transferase (GGPT) I (Rattus norvegicus, UniProt P53610+Q04631) (assay: In vitro enzyme assay: inhibition of geranylgeranyl protein transferase I (Ras-CVLL as acceptor)). Settings: Table 2; Ras-CVLL as isoprenoid acceptor.
T1 construct: geranylgeranyl protein transferase (GGPT) I were partially purified from rat brain; from tissue; host or cells: rat brain
Format: biochemical
Text: • 1. In vitro enzyme assays: Inhibition of farnesyl protein transferase and geranylgeranyl protein transferase. Both farnesyl protein transferase (FPT) and geranylgeranyl protein transferase (GGPT) I were partially purified from rat brain by ammonium sulfate fractionation followed by Q-Sepharose (Pharmacia, Inc.) anion exchange chromatography essentially as described by Yokoyama et al (Yokoyama, K., et al., (1991), A protein geranylgeranyltransferase from bovine brain: Implications for protein prenylation specificity, Proc. Natl. Acad. Sci USA 88: 5302-5306, the disclosure of which is incorporated herein by reference thereto). Human farnesyl protein transferase was also expressed in E. coli, using cDNA clones encoding both the a and b subunits. The methods used were similar to those published (Omer, C. et al., (1993), Characterization of recombinant human farnesyl protein transferase: Cloning, expression, farnesyl diphosphate binding, and functional homology with yeast prenyl-protein transferases, Biochemistry 32:5167-5176). Human farnesyl protein transferase was partially-purified from the soluble protein fraction of E. coli as described above. The tricyclic farnesyl protein transferase inhibitors disclosed herein inhibited both human and rat enzyme with similar potencies. Two forms of val^12-Ha-Ras protein were prepared as substrates for these enzymes, differing in their carboxy terminal sequence. One form terminated in cysteine-valine-leucine-serine (Ras-CVLS) the other in cystein-valine-leucine-leucine (Ras-CVLL). Ras-CVLS is a substrate for the farnesyl protein transferase while Ras-CVLL is a substrate for geranylgeranyl protein transferase I. The cDNAs encoding these proteins were constructed so that the proteins contain an amino-terminal extension of 6 histidine residues. Both proteins were expressed in Escherichia coli and purified using metal chelate affinity chromatography. The radiolabelled isoprenyl pyrophosphate substrates, [^3H]farnesyl pyrophosphate and [^3H]geranylgeranyl pyrophosphate, were purchased from DuPont/New England Nuclear. Several methods for measuring farnesyl protein transferase activity have been described (Reiss et al 1990, Cell 62: 81; Schaber et al 1990, J. Biol. Chem. 265: 14701; Manne et al 1990, PNAS 87: 7541; and Barbacid & Manne 1993, U.S. Patent No. 5,185,248). The activity was assayed by measuring the transfer of [^3H]farnesyl from [^3H]farnesyl pyrophosphate to Ras-CVLS using conditions similar to those described by Reiss et al. 1990 (Cell 62: 81) The reaction mixture contained 40 mM Hepes, pH 7.5; 20 mM magnesium chloride; 5 mM dithiothreitol; 0.25 µM [^3H]farnesyl pyrophosphate; […] Q-Sepharose-purified farnesyl protein transferase; the indicated concentration of tricyclic compound or dimethylsulfoxide (DMSO) vehicle control (5% DMSO final); and […] Ras-CVLS in a total volume of […]. The reaction was allowed to proceed for 30 minutes at room temperature and then stopped with 0.5 ml of 4% sodium dodecyl sulfate (SDS) followed by 0.5 ml of cold 30% TCA. Samples were allowed to sit on ice for 45 minutes and precipitated Ras protein was then collected on GF/C filter paper mats using a Brandel cell harvester. Filter mats were washed once with 6% TCA, 2% SDS and radioactivity was measured in a Wallac 1204 Betaplate BS liquid scintillation counter. Percent inhibition was calculated relative to the DMSO vehicle control. The geranylgeranyl protein transferase I assay was essentially identical to the farnesyl protein transferase assay described above, with two exceptions: [^3H]geranylgeranylpyrophosphate replaced farnesyl pyrophosphate as the isoprenoid donor and Ras-CVLL was the protein acceptor. This is similar to the assay reported by Casey et al (Casey, P.J., et al., (1991), Enzymatic modification of proteins with a geranylgeranyl isoprenoid, Proc. Natl. Acad. Sci, USA 88: 8631-8635, the disclosure of which is incorporated herein by reference thereto). • 2. […]

SMILES	IC50 [µM]
O=C(Cc1cc[n+]([O-])cc1)N1CCC(=C2c3ncc(Br)cc3CCc3cc(Cl)cc(Br)c32)CC1 (racemic) [Example 7]	> 300
NC(=O)N1CCC(CC(=O)N2CCC(C3c4ccc(Cl)c(Br)c4CCc4cc(Br)cnc43)CC2)CC1 (single isomer, unassigned) [Example 13]	> 63
O=C(Cc1cc[n+]([O-])cc1)N1CCC(C2c3ccc(Cl)c(Br)c3CCc3cc(Br)cnc32)CC1 (single isomer, unassigned) [Example 14A]	> 62
NC(=O)N1CCC(CC(=O)N2CCC(C3c4ncc(Br)cc4CCc4cc(Cl)cc(Cl)c43)CC2)CC1 (single isomer, unassigned) [Example 18]	> 50
O=C(Cc1cc[n+]([O-])cc1)N1CCC(=C2c3ccc(Cl)c(Br)c3CCc3cc(Br)cnc32)CC1 [Example 2]	> 300
O=C(Cc1cc[n+]([O-])cc1)N1CCN([C@H]2c3ccc(Cl)c(Br)c3CCc3cc(Br)cnc32)CC1 [Example 5]	> 66
O=C(Cc1cc[n+]([O-])cc1)N1CCC([C@H]2c3ncc(Br)cc3CCc3cc(Cl)cc(Br)c32)CC1 [Example 9]	> 59
O=C(Cc1cc[n+]([O-])cc1)N1CCN([C@H]2c3ncc(Br)cc3CCc3cc(Cl)cc(Br)c32)CC1 [Example 11A]	> 66
O=C(Cc1cc[n+]([O-])cc1)N1CCN([C@@H]2c3ccc(Cl)cc3CCc3cc(Br)cnc32)CC1 [Example 16A]	> 38
O=C(Cc1cc[n+]([O-])cc1)N1CCN([C@H]2c3ccc(Cl)cc3CCc3cc(Br)cnc32)CC1 [Example 16B]	> 76
